{
  "source": "patent US11584740B2",
  "about": "(priority 2017, dated 2023)",
  "key": {"[1]": {"tested_on": "Botryotinia fuckeliana (Botrytis cinerea)", "experiment": "Botryotinia fuckeliana (Botrytis cinerea) / liquid culture (gray mould)", "type": "cell-based", "conditions": "20 ppm; compared to untreated control; inhibition of growth determined photometrically 3-4 days after application, 24° C.", "experimental": "Botryotinia fuckeliana (Botrytis cinerea)/Liquid Culture (Gray Mould)\n(§1) Conidia of the fungus from cryogenic storage are directly mixed into nutrient broth (Vogels broth). After placing a (DMSO) solution of test compound into a microtiter plate (96-well format), the nutrient broth containing the fungal spores is added. The test plates are incubated at 24° C. and the inhibition of growth is determined photometrically 3-4 days after application."}, "Fusarium culmorum": {"tested_on": "Fusarium culmorum", "type": "cell-based", "conditions": "20 ppm; compared to untreated control; inhibition of growth determined photometrically 3-4 days after application, 24° C."}, "[2]": {"tested_on": "Glomerella lagenarium (Colletotrichum lagenarium)", "experiment": "Glomerella lagenarium (Colletotrichum lagenarium) / liquid culture (anthracnose)", "type": "cell-based", "conditions": "20 ppm; compared to untreated control; inhibition of growth measured photometrically 3-4 days after application, 24° C.", "experimental": "Glomerella Lagenarium (Colletotrichum lagenarium)/Liquid Culture (Anthracnose)\nas §1, with “(PDB potato dextrose” for “(Vogels”, “measured” for “determined”"}, "[3]": {"tested_on": "Magnaporthe grisea (Pyricularia oryzae)", "type": "cell-based", "conditions": "20 ppm; compared to untreated control; inhibition of growth determined photometrically 3-4 days after application, 24° C."}, "Gaeumannomyces graminis": {"tested_on": "Gaeumannomyces graminis", "experiment": "Gaeumannomyces graminis / liquid culture (take-all of cereals)", "type": "cell-based", "conditions": "20 ppm; compared to untreated control; inhibition of growth determined photometrically 4-5 days after application, 24° C.", "experimental": "Gaeumannomyces graminis/Liquid Culture (Take-all of Cereals)\nas §1, with “Mycelial fragments of” for “Conidia of”, “storage were” for “storage are”, “broth (PDB potato dextrose” for “broth (Vogels”, “spores iss” for “spores is”, “photometrically 4-5” for “photometrically 3-4”"}, "[4]": {"tested_on": "Monographella nivalis (Microdochium nivale)", "experiment": "Monographella nivalis (Microdochium nivale) / liquid culture (foot rot cereals)", "type": "cell-based", "conditions": "20 ppm; compared to untreated control; inhibition of growth determined photometrically 4-5 days after application, 24° C.", "experimental": "Monographella nivalis (Microdochium nivale)/Liquid Culture (Foot Rot Cereals)\nas §1, with “(PDB potato dextrose” for “(Vogels”, “4-5” for “3-4”"}},
  "data": [
    {"smiles": "CC(C)CC(C)(Cc1ccc(Cl)s1)C(=O)Nc1cnc2c(F)cccc2c1", "note": "(stereo not shown) [Compound E1, 2-[(5-chloro-2-thienyl)methyl]-N-(8-fluoro-3-quinolyl)-2,4-dimethyl-pentanamide]", "values": [
      {"measurement": "control of Botryotinia fuckeliana", "setting": "[1]", "value": "at least 80%"},
      {"measurement": "control of Fusarium culmorum", "setting": "Fusarium culmorum", "value": "at least 80%"},
      {"measurement": "melting point", "value": "142 to 145", "unit": "°C"},
      {"measurement": "control of Glomerella lagenarium", "setting": "[2]", "value": "at least 80%"},
      {"measurement": "control of Magnaporthe grisea", "setting": "[3]", "value": "at least 80%"},
      {"measurement": "control of Gaeumannomyces graminis", "setting": "Gaeumannomyces graminis", "value": "at least 80%"},
      {"measurement": "control of Monographella nivalis", "setting": "[4]", "value": "at least 80%"}
    ]}
  ]
}
